How the values were obtained:
B16 mouse melanoma cells = assay: Cell based assay: melanin synthesis in B16 mouse melanoma cells; details: 6.25 micromolar, 72 hours, absorbency of medium at 530 nm, read-out: % of Control (Melanin Synthesis)
Procedure: This experiment was carried out using a cell based assay.
B16 mouse melanoma cells were utilized in the following experiment to evaluate the efficacy of skin lightening agents. B16 cells were plated in 96-well microtiter plates at a density of 5000 cells per well and cultured overnight in Dulbecco's Modified Eagle's Medium (phenol red free) containing 10% fetal bovine serum and 1% penicillin/streptomycin at 37° C. in the presence of 5% CO2. After 24 hours, the medium was replaced with fresh growth medium containing the treatments. All cultures were incubated for 72 hours at which time melanin was visible in the control treatment. The melanin-containing medium was transferred to a clean 96-well plate and quantified by reading the absorbency at 530-nm. Cell viability was assessed by measurement of lactate dehydrogenase levels to ensure the decrease in melanin was not a result of cellular toxicity.

mushroom tyrosinase = assay: Mushroom tyrosinase assay; type: biochemical; details: for Tyrosinase activity (% of ethanol control): slope of 475-nm absorbency vs ethanol control, L-DOPA substrate; for effectiveness in skin lightening as measured by the mushroom tyrosinase assay (in words): compared with 4-ethyl resorcinol
Procedure: Mushroom tyrosinase inhibition is indicative of reduction in melanin synthesis, thereby showing skin lightening effect.
Into each well of a 96-well plate, 150 microliters of phosphate buffer (100 mM, pH 7.0), 10 microliters of L-DOPA (L-3,4-Dihydroxyphenylalanine, 10 mM), and 20 microliters of skin lightening agent (dissolved in ethanol, which is the control) were added. Following an initial measurement of background absorbency at 475-nm, 20 microliters of mushroom tyrosinase (Sigma T-7755; 6050 units/ml) was added and incubated at room temperature.
Absorbency was read at 475-nm over the following time points: 0, 2, 4, and 6.5 minutes. The data is plotted as 475-nm absorbency vs. time (minutes) and the slope of the line is calculated (ΔAbs 475 nm/min). Values are expressed as the percentage of the respective untreated ethanol control reaction.

| Tyrosinase activity (% of ethanol control) (mushroom tyrosinase; 0.1 micro-M) [%] | Tyrosinase activity (% of ethanol control) (mushroom tyrosinase; 1 micro-M) [%] | Tyrosinase activity (% of ethanol control) (mushroom tyrosinase; 10 micro-M) [%] | Tyrosinase activity (% of ethanol control) (mushroom tyrosinase; 100 micro-M) [%] | Tyrosinase activity (% of ethanol control) (mushroom tyrosinase; 1.56 micro-M) [%] | Tyrosinase activity (% of ethanol control) (mushroom tyrosinase; 12.5 micro-M) [%] | Structure (SMILES) | activity at 6.25 µM (B16 mouse melanoma cells) [%] | effectiveness in skin lightening as measured by the mushroom tyrosinase assay (in words) (mushroom tyrosinase) |
| --- | --- | --- | --- | --- | --- | --- | --- | --- |
| 72.7 | 46.3 | 30.8 | 20.7 |  |  | CCc1ccc(O)cc1O [4-Ethyl Resorcinol, reference compound] | 34 |  |
| 104 | 100 | 108 | 117 |  |  | O=c1ccc2ccc(O)cc2o1 [7-Hydroxy Coumarin, reference compound] |  |  |
|  | 94.2 |  | 75.3 | 90.4 | 70.4 | CC1CC(=O)Oc2cc(O)ccc21 (stereo not drawn) [B1, 7-hydroxy-3,4-dihydro-4-methylcoumarin] | 75.8 | not effective in skin lightening |
|  | 73.1 |  | 41.0 | 39.3 | 35.8 | COC(=O)CC(C)c1ccc(O)cc1O (stereo not drawn) [D1, Methyl 3-(2,4-dihydroxyphenyl)-butyrate] | 36.4 | substantially as effective as 4-ethyl resorcinol |
|  | 73.3 |  | 20.6 | 41.6 | 28.0 | CC(CC(=O)O)c1ccc(O)cc1O (stereo not drawn) [II, 3-(2,4-dihydroxyphenyl)-butyric acid] | 32.8 | substantially as effective as 4-ethyl resorcinol |
